Results from patent publication US20220332764A1, “T CELL EPITOPES OF HCMV AND USES OF THEREOF” (EBERHARD KARLS UNIVERSITÄT TÜBINGEN, priority 2019, published 2022).
Values joined by “and” are separate entries in the source; they are usually repeats but may differ in a detail not shown here. Equal entries are not always repeated.

Assays:
[1] = system: PBMCs of healthy HCMV-seropositive donors; experiment: IFNγ ELISpot after 12 day stimulation (memory T-cell response); assay type: cell-based, human; conditions: for % Positive donors (after 12 days of stimulation): IFNγ ELISpot, HLA-matched seropositive donors; for Positive donors as tested: positive / tested HLA-matched seropositive donors, positive: >10 spots/well and at least 3-fold negative control
Source text: (§1) PHA was used as positive control.

[2] = system: PBMCs of healthy HCMV-seropositive donors; experiment: ex vivo IFNγ ELISpot without prestimulation; assay type: cell-based, human; conditions: IFNγ ELISpot ex vivo, donors previously tested positive
Source text: as §1

For “GLLAHIPALGV (listed as Human cytomegalovirus) [SEQ ID NO: 8]”, the “% Positive donors (after 12 days of stimulation)” value [1] was 27.3%, the “Positive donors as tested” value [1] was 6/22 and the “% Positive donors (ex vivo)” value [2] was 0.0%.

For “RLQPNVPLV (listed as Human cytomegalovirus) [SEQ ID NO: 7]”, the “% Positive donors (after 12 days of stimulation)” value [1] was 33.3%, the “Positive donors as tested” value [1] was 6/18 and the “% Positive donors (ex vivo)” value [2] was 0.0%.

In the case of “RPFPSTHQL (listed as Human cytomegalovirus) [SEQ ID NO: 31]”, the “% Positive donors (after 12 days of stimulation)” value [1] is reported as 30.8%, the “Positive donors as tested” value [1] is reported as 4/13 and the “% Positive donors (ex vivo)” value [2] is reported as 0.0%.

With “SLFYRAVAL (listed as Human cytomegalovirus) [SEQ ID NO: 98]” the “Positive donors as tested” value [1] was 5/13 and 4/22, the “Binding to more than one HLA-I allotype” value ([1]; stimulated T cells of different donors harboring either of two well predicted alleles) was “potentially able to bind to more than one HLA-I allotype” and the “% Positive donors (ex vivo)” value [2] was 12.5%.

With “SLYEANPEL (listed as Human cytomegalovirus) [SEQ ID NO: 10]” the “% Positive donors (after 12 days of stimulation)” value [1] was 23.5% and the “Positive donors as tested” value [1] was 4/17.

In the case of “SPHPPTSVFL (listed as Human cytomegalovirus) [SEQ ID NO: 33]”, the “% Positive donors (after 12 days of stimulation)” value [1] is reported as 25.0% and the “Positive donors as tested” value [1] is reported as 3/12.

For “SVRLPYMYK (listed as Human cytomegalovirus) [SEQ ID NO: 75]”, the “% Positive donors (after 12 days of stimulation)” value [1] was 25.0% and the “Positive donors as tested” value [1] was 4/16.

With “SVSSAPLNK (listed as Human cytomegalovirus) [SEQ ID NO: 79]” the “% Positive donors (after 12 days of stimulation)” value [1] was 7.1% and the “Positive donors as tested” value [1] was 1/14.

For “TILDKILNV (listed as Human cytomegalovirus) [SEQ ID NO: 11]”, the “% Positive donors (after 12 days of stimulation)” value [1] was 20.0% and the “Positive donors as tested” value [1] was 4/20.

“TLINGVWVV (listed as Human cytomegalovirus) [SEQ ID NO: 12]” was tested, and the “Positive donors as tested” value [1] was 2/11.

In the case of “TPLLKRLPL (listed as Human cytomegalovirus) [SEQ ID NO: 82]”, the “% Positive donors (after 12 days of stimulation)” value [1] is reported as 28.6% and the “Positive donors as tested” value [1] is reported as 4/14.

For “TSETHFGNY (listed as Human cytomegalovirus) [SEQ ID NO: 59]”, the “% Positive donors (after 12 days of stimulation)” value [1] was 20.0% and the “Positive donors as tested” value [1] was 3/15.

“VMKFKETSF (listed as Human cytomegalovirus) [SEQ ID NO: 81]” was tested, and the “Positive donors as tested” value [1] was 5/13.

“VPAAVYTTV (listed as Human cytomegalovirus) [SEQ ID NO: 93]” was tested, and the “% Positive donors (after 12 days of stimulation)” value [1] was 33.3% and the “Positive donors as tested” value [1] was 5/15.

With “VTDPEHLMM (listed as Human cytomegalovirus) [SEQ ID NO: 64]” the “% Positive donors (after 12 days of stimulation)” value [1] was 14.3% and the “Positive donors as tested” value [1] was 2/14.

In the case of “VTDYGNVAFKY (listed as Human cytomegalovirus) [SEQ ID NO: 61]”, the “% Positive donors (after 12 days of stimulation)” value [1] is reported as 18.8% and the “Positive donors as tested” value [1] is reported as 3/16.

“YSDRRDHVWSY (listed as Human cytomegalovirus) [SEQ ID NO: 66]” was tested, and the “% Positive donors (after 12 days of stimulation)” value [1] was 6.3% and the “Positive donors as tested” value [1] was 1/16.

“YTSRGALYLY (listed as Human cytomegalovirus) [SEQ ID NO: 58]” was tested, and the “% Positive donors (after 12 days of stimulation)” value [1] was 21.4% and the “Positive donors as tested” value [1] was 3/14.
